Reference: ChEMBL document CHEMBL3885861, “Open TG-GATES”

Species on record: Rattus norvegicus
Experiment: Open TG-GATES - Regimen: Daily Repeat
Assay type: toxicity, organism-based, Sprague-Dawley
Parameters: regimen Daily Repeat, gender Male, age 6 weeks
Settings: in vivo, po, 30 mg/kg, route gavage, dose level Low; for APTT / Bas / Eos / Fbg / Hb / Ht / Lym / MCH / MCHC / MCV / Mono / Neu / PT / Plat / RBC / Ret / WBC: tissue Blood; for KIDNEY_L / KIDNEY_R / KIDNEY_TOTAL: tissue Kidney; for LIVER: tissue Liver; for A/G / ALP / ALT / AST / BUN / CRE / Ca / Cl / DBIL / GLC / IP / K / LDH / Na / PL / RALB / TBIL / TC / TG / TP / gamma-GTP: tissue Plasma

Compound: Clc1c(Cl)c(Cl)c(Cl)c(Cl)c1Cl [PERCHLOROBENZENE]
- TERMINAL_BW (72 h, time 3 day): 223.9 g
- APTT (72 h, time 3 day): 16.2 s
- Bas (72 h, time 3 day): 0%
- Eos (72 h, time 3 day): 1.2%
- Fbg (72 h, time 3 day): 215.4 mg/dL
- Hb (72 h, time 3 day): 13.9 g/dL
- Ht (72 h, time 3 day): 41.8%
- Lym (72 h, time 3 day): 72.2%
- MCH (72 h, time 3 day): 21.8 pg
- MCHC (72 h, time 3 day): 33.3%
- MCV (72 h, time 3 day): 65.6 fL
- Mono (72 h, time 3 day): 6.8%
- Neu (72 h, time 3 day): 19.6%
- PT (72 h, time 3 day): 11.5 s
- Plat (72 h, time 3 day): 98.9 x10_4/uL
- RBC (72 h, time 3 day): 637.6 x10_4/ul
- Ret (72 h, time 3 day): 7.6%
- WBC (72 h, time 3 day): 102.3 x10_2/uL
- KIDNEY_L (72 h, time 3 day): 1.1 g
- KIDNEY_R (72 h, time 3 day): 1.1 g
- KIDNEY_TOTAL (72 h, time 3 day): 2.2 g
- LIVER (72 h, time 3 day): 12.4 g
- A/G (72 h, time 3 day): 2.2
- ALP (72 h, time 3 day): 816 IU/L
- ALT (72 h, time 3 day): 41.6 IU/L
- AST (72 h, time 3 day): 67 IU/L
- BUN (72 h, time 3 day): 14.6 mg/dL
- CRE (72 h, time 3 day): 0.5 mg/dL
- Ca (72 h, time 3 day): 10.5 mg/dL
- Cl (72 h, time 3 day): 105.6 meq/L
- DBIL (72 h, time 3 day): 0.028 mg/dL
- GLC (72 h, time 3 day): 194.4 mg/dL
- IP (72 h, time 3 day): 8.3 mg/dL
- K (72 h, time 3 day): 5.1 meq/L
- LDH (72 h, time 3 day): 104 IU/L
- Na (72 h, time 3 day): 139.6 meq/L
- PL (72 h, time 3 day): 143.8 mg/dL
- RALB (72 h, time 3 day): 3.9 g/dL
- TBIL (72 h, time 3 day): 0.4 mg/dL
- TC (72 h, time 3 day): 82 mg/dL
- TG (72 h, time 3 day): 79.8 mg/dL
- TP (72 h, time 3 day): 5.7 g/dL
- gamma-GTP (72 h, time 3 day): 1.4 IU/L
- TERMINAL_BW ([…], time 7 day): 255.4 g
- TERMINAL_BW ([…], time 14 day): 320.4 g
- TERMINAL_BW ([…], time 28 day): 413.2 g
- APTT ([…], time 7 day): 16.5 s
- Bas ([…], time 7 day): 0%
- Eos ([…], time 7 day): 1.4%
- Fbg ([…], time 7 day): 225 mg/dL
- Hb ([…], time 7 day): 14 g/dL
- Ht ([…], time 7 day): 42%
- Lym ([…], time 7 day): 79.6%
- MCH ([…], time 7 day): 21.1 pg
- MCHC ([…], time 7 day): 33.4%
- MCV ([…], time 7 day): 63.3 fL
- Mono ([…], time 7 day): 5.2%
- Neu ([…], time 7 day): 14.2%
- PT ([…], time 7 day): 11.6 s
- Plat ([…], time 7 day): 116.4 x10_4/uL
- RBC ([…], time 7 day): 663.6 x10_4/ul
- Ret ([…], time 7 day): 5.4%
- WBC ([…], time 7 day): 97.6 x10_2/uL
- APTT ([…], time 14 day): 17.7 s
- Bas ([…], time 14 day): 0%
- Eos ([…], time 14 day): 1.6%
- Fbg ([…], time 14 day): 225.8 mg/dL
- Hb ([…], time 14 day): 14.4 g/dL
- Ht ([…], time 14 day): 43%
- Lym ([…], time 14 day): 66.8%
- MCH ([…], time 14 day): 20.5 pg
- MCHC ([…], time 14 day): 33.5%
- MCV ([…], time 14 day): 61.3 fL
- Mono ([…], time 14 day): 12%
- Neu ([…], time 14 day): 19.6%
- PT ([…], time 14 day): 11.9 s
- Plat ([…], time 14 day): 119 x10_4/uL
- RBC ([…], time 14 day): 702.6 x10_4/ul
- Ret ([…], time 14 day): 4.3%
- WBC ([…], time 14 day): 113.1 x10_2/uL
- APTT ([…], time 28 day): 21.6 s
- Bas ([…], time 28 day): 0%
- Eos ([…], time 28 day): 1.8%
- Fbg ([…], time 28 day): 258.6 mg/dL
- Hb ([…], time 28 day): 15 g/dL
- Ht ([…], time 28 day): 44.8%
- Lym ([…], time 28 day): 69.8%
- MCH ([…], time 28 day): 20.4 pg
- MCHC ([…], time 28 day): 33.4%
- MCV ([…], time 28 day): 61 fL
- Mono ([…], time 28 day): 12%
- Neu ([…], time 28 day): 16.2%
- PT ([…], time 28 day): 13.2 s
- Plat ([…], time 28 day): 102.4 x10_4/uL
- RBC ([…], time 28 day): 735 x10_4/ul
- Ret ([…], time 28 day): 3%
- WBC ([…], time 28 day): 113.2 x10_2/uL
- KIDNEY_L ([…], time 7 day): 1.2 g
- KIDNEY_R ([…], time 7 day): 1.2 g
- KIDNEY_TOTAL ([…], time 7 day): 2.4 g
- KIDNEY_L ([…], time 14 day): 1.3 g
- KIDNEY_R ([…], time 14 day): 1.4 g
- KIDNEY_TOTAL ([…], time 14 day): 2.7 g
- KIDNEY_L ([…], time 28 day): 1.7 g
- KIDNEY_R ([…], time 28 day): 1.7 g
- KIDNEY_TOTAL ([…], time 28 day): 3.4 g
- LIVER ([…], time 7 day): 14.7 g
- LIVER ([…], time 14 day): 20.2 g
- LIVER ([…], time 28 day): 27.3 g
- A/G ([…], time 7 day): 2.1
- ALP ([…], time 7 day): 719.8 IU/L
- ALT ([…], time 7 day): 33.2 IU/L
- AST ([…], time 7 day): 55.8 IU/L
- BUN ([…], time 7 day): 15.8 mg/dL
- CRE ([…], time 7 day): 0.6 mg/dL
- Ca ([…], time 7 day): 10.4 mg/dL
- Cl ([…], time 7 day): 104.8 meq/L
- DBIL ([…], time 7 day): 0.002 mg/dL
- GLC ([…], time 7 day): 190.6 mg/dL
- IP ([…], time 7 day): 7.9 mg/dL
- K ([…], time 7 day): 5 meq/L
- LDH ([…], time 7 day): 93.6 IU/L
- Na ([…], time 7 day): 137.6 meq/L
- PL ([…], time 7 day): 166.4 mg/dL
- RALB ([…], time 7 day): 4 g/dL
- TBIL ([…], time 7 day): 0.5 mg/dL
- TC ([…], time 7 day): 89.4 mg/dL
- TG ([…], time 7 day): 129.8 mg/dL
- TP ([…], time 7 day): 5.9 g/dL
- gamma-GTP ([…], time 7 day): 1.2 IU/L
- A/G ([…], time 14 day): 1.8
- ALP ([…], time 14 day): 589.2 IU/L
- ALT ([…], time 14 day): 35.4 IU/L
- AST ([…], time 14 day): 61.8 IU/L
- BUN ([…], time 14 day): 17.6 mg/dL
- CRE ([…], time 14 day): 0.6 mg/dL
- Ca ([…], time 14 day): 10.4 mg/dL
- Cl ([…], time 14 day): 105.4 meq/L
- DBIL ([…], time 14 day): 0.004 mg/dL
- GLC ([…], time 14 day): 173.2 mg/dL
- IP ([…], time 14 day): 7.1 mg/dL
- K ([…], time 14 day): 4.9 meq/L
- LDH ([…], time 14 day): 84.6 IU/L
- Na ([…], time 14 day): 139.6 meq/L
- PL ([…], time 14 day): 201 mg/dL
- RALB ([…], time 14 day): 4 g/dL
- TBIL ([…], time 14 day): 0.4 mg/dL
- TC ([…], time 14 day): 120.6 mg/dL
- TG ([…], time 14 day): 119.6 mg/dL
- TP ([…], time 14 day): 6.2 g/dL
- gamma-GTP ([…], time 14 day): 2 IU/L
- A/G ([…], time 28 day): 1.6
- ALP ([…], time 28 day): 345.6 IU/L
- ALT ([…], time 28 day): 35.6 IU/L
- AST ([…], time 28 day): 55.2 IU/L
- BUN ([…], time 28 day): 18.6 mg/dL
- CRE ([…], time 28 day): 0.7 mg/dL
- Ca ([…], time 28 day): 10.8 mg/dL
- Cl ([…], time 28 day): 105 meq/L
- DBIL ([…], time 28 day): 0.004 mg/dL
- GLC ([…], time 28 day): 160.4 mg/dL
- IP ([…], time 28 day): 7 mg/dL
- K ([…], time 28 day): 4.7 meq/L
- LDH ([…], time 28 day): 75 IU/L
- Na ([…], time 28 day): 141.2 meq/L
- PL ([…], time 28 day): 190.6 mg/dL
- RALB ([…], time 28 day): 4.4 g/dL
- TBIL ([…], time 28 day): 0.4 mg/dL
- TC ([…], time 28 day): 118 mg/dL
- TG ([…], time 28 day): 127.4 mg/dL
- TP ([…], time 28 day): 7.2 g/dL
- gamma-GTP ([…], time 28 day): 3.2 IU/L
